What follows are compounds tested on HBV (assay: Anti-HBV activity in vitro: quantification of extracellular HBV DNA by direct qPCR in HepAD38 cells). Settings: Hepatitis B virus, tetracycline-free medium, 96 hours at 37°C, reported as EC50 threshold value, read-out: HBV inh EC50.
Assay type: cell-based
Text: HepAD38 cell line (Ladner et al., Antimicrob Agents Chemother, 1997, 41, 1715-20) was used for HBV inhibition assays. HepAD38 is a subclone, derived from Hepatoblastoma cell line HepG2 (ATCC® Number: HB-8065™), that expresses HBV genome under the transcriptional control of a tetracycline-responsive promoter in a TET-OFF system: addition of tetracycline (TET) or doxycycline suppresses HBV replication, while its removal switches on the process allowing HBV viral particles release in the cell supernatant. HepAD38 cell line is maintained in DMEM/F12, supplemented with 10% of fetal bovine serum, 1% of glutamine, 1% of penicillin/streptomycin, 0.4 mg/ml G418 and 0,3 ug/ml tetracycline. For the HBV inhibition assay, doxycycline-free medium is used in order to allow virion production.
HBV inhibition activity in vitro was performed in 96 multiwell plates. During the initial (primary) screening, compounds were first tested in triplicates at concentrations of 0.02 µM, 0.1 µM, 0.5µM and 1µM. For selected compounds, an 8-point dose-response curve was obtained using 1:2 serial dilutions (starting from 0.01µM, 0.1µM, 0.4µM or 5 µM, depending on the degree of inhibition observed during the primary screening). From the dose-response curves, half maximal effective concentration (EC50) could be calculated (see also below).
In more detail, compounds - typically dissolved in DMSO stock solutions - were diluted to 2x the final desired concentration in 100 µl of the above medium (without doxycycline) and plated in three replicates in the 96-well plates.
Simultaneously, HepAD38 cells - extensively pre-washed in tetracycline-free medium in order to induce HBV production - were suspended at 2^∗10^4 cells in 100 µl of tetracycline-free medium and added to each well of the plate, to yield a final assay volume of 200 µl DMSO - used for stock solutions and compounds dilutions - which was always present in the assays at a final concentration of 0.5%.
Plates were then incubated 96 hours at 37°C and then subjected to cell viability assays and extracellular HBV quantification, in order to evaluate both the cytotoxic potential and the antiviral activity of compounds. Cytotoxicity was assessed by a commercial fluorescence assay that measures the metabolic activity of cells, directly related to cell viability (Cell Titer Blue, Promega). Anti-HBV activity was evaluated by quantification of extracellular HBV DNA with direct qPCR. In particular, supernatant was collected and centrifuged for cell debris clarification, viral DNA was extracted from virions by addition of lysis buffer (1 mM 1,4-dithiothreitol, 0.2% sodium dodecyl sulphate) and incubated at 95°C for 10 min. Samples were then diluted 1:40 and real time PCR amplification was performed with SYBR green assay (Power SYBR™ Green PCR Master Mix-Thermo Fisher Scientific) and specific HBV primer (HBV-DF:5'-[…]-3' (SEQ ID No. 1), HBV-DR:5'-[…]-3' (SEQ ID No.2)).
Antiviral activity data for each compound are reported as EC50 threshold value (see Table 1 legend). Excel and Graphpad Prism programs are typically used for data elaboration and EC50 calculation.

SMILES	EC50 [nM]
Cc1cc(NC(=O)c2c3c(cn2C)S(=O)(=O)N[C@@H]2CN(C(=O)C(=O)N[C@H](C)C(F)(F)F)C[C@]2(C)CO3)ccc1F (stereo in doubt) [Example E26, Cis-N-(4-fluoro-3-methylphenyl)-7,10a-dimethyl-2-(2-oxo-2-(((R)-1,1,1-trifluoropropan-2-yl)amino)acetyl)-2,3,3a,4,10,10a-hexahydro-1H,7H-dipyrrolo[3,4-b:3',4'-f][1,4,5]oxathiazocine-8-carboxamide 5,5-dioxide]	< 500
Cc1cc(NC(=O)c2c3c(cn2C)S(=O)(=O)N[C@H]2CN(C(=O)C(=O)N[C@H](C)C(F)(F)F)C[C@H]2CS3)ccc1F [Example E24, (3aR,10aR)-N-(4-fluoro-3-methylphenyl)-7-methyl-2-(2-oxo-2-(((R)-1,1,1-trifluoropropan-2-yl)amino)acetyl)-2,3,3a,4,10,10a-hexahydro-1H,7H-dipyrrolo[3,4-c:3',4'-g][1,6,2] dithiazocine-8-carboxamide 5,5-dioxide]	< 500
Cc1cc(NC(=O)c2c3c(cn2C)S(=O)(=O)N[C@H]2CN(C(=O)C(=O)N4CC(F)(F)C4)C[C@H]2CS3)ccc1F [Example E36, (3aR,10aR)-2-(2-(3,3-difluoroazetidin-1-yl)-2-oxoacetyl)-N-(4-fluoro-3-methylphenyl)-7-methyl-2,3,3a,4,10,10a-hexahydro-1H,7H-dipyrrolo[3,4-c:3',4'-g][1,6,2]dithiazocine-8-carboxamide 5,5-dioxide]	< 500
Cc1cc(NC(=O)c2c3c(cn2C)S(=O)(=O)N[C@@H]2CN(C(=O)C(=O)NC4CC4)C[C@H]2CO3)ccc1F (relative stereo) [Example E31, trans-2-(2-(cyclopropylamino)-2-oxoacetyl)-N-(4-fluoro-3-methylphenyl)-7-methyl-2,3,3a,4,10,10a-hexahydro-1H,7H-dipyrrolo[3,4-b:3',4'-f][1,4,5]oxathiazocine-8-carboxamide 5,5-dioxide]	< 500
Cc1cc(NC(=O)c2c3c(cn2C)S(=O)(=O)N[C@@H]2CN(C(=O)C(N)=O)C[C@@H]2CO3)ccc1F (relative stereo) [Example E11, cis-2-(2-amino-2-oxoacetyl)-N-(4-fluoro-3-methylphenyl)-7-methyl-2,3,3a,4,10,10a-hexahydro-1H,7H-dipyrrolo[3,4-b:3',4'-f][1,4,5]oxathiazocine-8-carboxamide 5,5-dioxide]	< 500
Cc1cc(NC(=O)c2c3c(cn2C)S(=O)(=O)N[C@H]2CN(C(=O)C(=O)N[C@@H](C)C(F)(F)F)C[C@H]2CO3)ccc1F [Example E15, (3aR,10aR)-N-(4-fluoro-3-methylphenyl)-7-methyl-2-(2-oxo-2-(((S)-1,1,1-trifluoropropan-2-yl)amino)acetyl)-2,3,3a,4,10,10a-hexahydro-1H,7H-dipyrrolo[3,4-b:3',4'-f][1,4,5]oxathiazocine-8-carboxamide 5,5-dioxide]	< 500
Cc1cc(NC(=O)c2c3c(cn2C)S(=O)(=O)N[C@H]2CN(C(=O)C(=O)NC(C)(C)C)C[C@H]2CO3)ccc1F [Example E7, (3aR,10aR)-2-(2-(tert-butylamino)-2-oxoacetyl)-N-(4-fluoro-3-methylphenyl)-7-methyl-2,3,3a,4,10,10a-hexahydro-1H,7H-dipyrrolo[3,4-b:3',4'-f][1,4,5]oxathiazocine-8-carboxamide 5,5-dioxide]	< 500
CNC(=O)C(=O)N1C[C@@H]2COc3c(cn(C)c3C(=O)Nc3cc(F)c(F)c(F)c3)S(=O)(=O)N[C@@H]2C1 (relative stereo) [Example E12, cis-7-methyl-2-(2-(methylamino)-2-oxoacetyl)-N-(3,4,5-trifluorophenyl)-2,3,3a,4,10,10a-hexahydro-1H,7H-dipyrrolo[3,4-b:3',4'-f][1,4,5]oxathiazocine-8-carboxamide 5,5-dioxide]	< 500
